Test results: paper PMC9304066, “H2S biogenesis by cystathionine beta-synthase: mechanism of inhibition by aminooxyacetic acid and unexpected role of serine” (Cellular and Molecular Life Sciences: CMLS, 2022)
Where “and” joins values, the source holds several entries; their conditions need not be identical. Identical values can stand only once.

Key:
[1] = molecular target: T1, tScCBS (Saccharomyces cerevisiae, UniProt P32582); test: UV-Vis absorption titration of tScCBS (dissociation constants); type: binding; conditions: tScCBS 1 mg/mL, pH 8.5; decrease in absorbance at 412 nm (AOAA), increase at 460 nm (Ser) or 440 nm (Cys); 3 min incubation; read-out: Dissociation constant Kd (UV-Vis absorption)
T1 construct: 6xHis (C); made in house
T1 sequence (P32582 1-345): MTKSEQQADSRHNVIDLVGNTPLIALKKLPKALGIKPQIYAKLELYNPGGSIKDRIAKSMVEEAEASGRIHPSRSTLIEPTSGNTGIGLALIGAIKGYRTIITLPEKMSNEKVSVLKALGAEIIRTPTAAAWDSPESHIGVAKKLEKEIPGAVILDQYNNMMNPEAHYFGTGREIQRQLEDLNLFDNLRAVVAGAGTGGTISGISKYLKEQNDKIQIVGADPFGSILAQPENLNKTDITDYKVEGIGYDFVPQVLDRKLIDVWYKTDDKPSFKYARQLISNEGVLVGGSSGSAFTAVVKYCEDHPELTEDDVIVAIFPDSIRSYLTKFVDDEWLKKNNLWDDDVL
Protocol: CBS enzymes. Recombinant truncated Saccharomyces cerevisiae CBS lacking the C-terminal regulatory domain (residues 346–507) and carrying the C-terminal 6xHis tag (tScCBS) was prepared as described previously. Engineered recombinant Homo sapiens CBS lacking a loop protruding from the central β-strand of the CBS2 domain corresponding to the residues 516–525 (HsCBS; described in detail in [21]) was purchased from GenScript.
UV − Vis and fluorescence spectroscopy. Absorption spectra were collected on a Tecan Infinite M200 Pro spectrophotometer in a buffer containing 50 mM Tris–HCl pH 8.5, 20 mM NaCl and 0.5 mM tris(2-carboxyethyl)phosphine (TCEP). All the spectra were carried out with a protein concentration of 1 mg/mL with a 1 cm path-length quartz cuvette in a total volume of 150 µL. tScCBS was titrated directly in a cuvette by successive additions of different concentrations of AOAA, Ser and Cys, respectively, and spectra were recorded between 240 and 600 nm after an incubation time of 3 min at RT. Fluorescence emission spectra were collected under the same conditions upon PLP excitation at 410 nm. Blank spectra were subtracted from sample spectra.

[2] = molecular target: T1, tScCBS; test: CBS H2S production assay (AzMC fluorometric), tScCBS; type: biochemical
Protocol: (§1) CBS H2S production assay. H2S-producing activity of CBS, utilizing Cys and Hcy, was determined using a fluorometric assay employing the H2S-selective fluorescent probe 7-azido-4-methylcoumarin (AzMC) as described previously. The reaction mixture in a total volume of 200 µL contained 50 mM Tris–HCl pH 8.6, 5 μM PLP, 2 mM Hcy, 10 μM AzMC and 500 ng tScCBS or HsCBS. The plate was incubated for 10 min at 37°C and the enzymatic activity was triggered by adding 0–50 mM Cys. The fluorescence of the mixtures at 450 nm (excited at 365 nm) was followed for 2 h at 37°C. All measurements were performed in triplicates using Tecan Infinite 200 PRO microplate reader. Kinetic data were analyzed using GraphPad Prism software.

[3] = molecular target: T2, HsCBS (Homo sapiens, UniProt P35520, DEL516-525); test: CBS H2S production assay (AzMC fluorometric), HsCBS; type: biochemical; conditions: for IC50: AzMC assay, 5 mM Cys + 2 mM Hcy
T2 construct: purchased GenScript
T2 sequence (P35520 with tags, fused parts or gaps DEL516-525): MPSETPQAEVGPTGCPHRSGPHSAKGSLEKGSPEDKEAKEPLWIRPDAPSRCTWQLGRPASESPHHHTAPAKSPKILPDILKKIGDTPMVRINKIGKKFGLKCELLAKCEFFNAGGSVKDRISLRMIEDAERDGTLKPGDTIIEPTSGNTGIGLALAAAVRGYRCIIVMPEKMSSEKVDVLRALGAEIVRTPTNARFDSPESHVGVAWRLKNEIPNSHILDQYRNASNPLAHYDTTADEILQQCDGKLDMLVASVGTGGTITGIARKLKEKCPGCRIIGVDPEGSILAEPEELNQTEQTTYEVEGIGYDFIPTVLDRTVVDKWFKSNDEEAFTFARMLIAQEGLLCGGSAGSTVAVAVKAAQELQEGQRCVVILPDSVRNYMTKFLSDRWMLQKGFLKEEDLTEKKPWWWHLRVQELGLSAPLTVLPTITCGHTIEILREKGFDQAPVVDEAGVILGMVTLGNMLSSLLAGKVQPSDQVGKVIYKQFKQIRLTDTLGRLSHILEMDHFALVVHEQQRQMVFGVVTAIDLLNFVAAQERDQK
Protocol: as §1

[4] = tested on: HEK293 cells; test: Detection of H2S production in live cells (AzMC imaging); type: cell-based, human
Protocol: Cell culture. The human embryonic kidney cell line HEK293 (ATCC CRL-1573) was cultured in Dulbecco’s Modified Eagle Medium (DMEM) containing 4.5 g/L glucose. The culture medium was supplemented with 10% (v/v) heat-inactivated fetal bovine serum, 2 mM Glutamax, non-essential amino acids, 100 U/ml penicillin and 100 μg/ml streptomycin. Cells were grown in a humidified incubator at 37 °C and 5% CO2 atmosphere. Cell viability and proliferation were assessed using MTT and BrdU assay, respectively, essentially as described previously. Detection of H2S production in live cells. Cells were seeded in black 96-well plates with optical bottom (15,000 cells/well). The following morning, the cells were treated with 150 µM AOAA, 1/3/10 mM Ser or their combination for 24 h. After that the culture medium was replaced with Hank’s Balanced Salt Solution (HBSS) buffer supplemented with 100 μM AzMC and further incubated for 1 h. Dye’s specific fluorescence was visualized using a Leica DFC360 FX microscope and images were captured with Leica Application Suite X software (Leica Biosystems, Germany). Images were analyzed with ImageJ software (version 1.8.0; NIH, Bethesda, MD, USA) and data were analyzed using GraphPad Prism 8 (GraphPad Software Inc.; San Diego, CA, USA).

[5] = tested on: HEK293 cells; test: Cell viability (MTT); type: cell-based, human; conditions: Ser 0.15–10 mM
Protocol: (§2) Cell culture. The human embryonic kidney cell line HEK293 (ATCC CRL-1573) was cultured in Dulbecco’s Modified Eagle Medium (DMEM) containing 4.5 g/L glucose. The culture medium was supplemented with 10% (v/v) heat-inactivated fetal bovine serum, 2 mM Glutamax, non-essential amino acids, 100 U/ml penicillin and 100 μg/ml streptomycin. Cells were grown in a humidified incubator at 37 °C and 5% CO2 atmosphere. Cell viability and proliferation were assessed using MTT and BrdU assay, respectively, essentially as described previously.

[6] = tested on: HEK293 cells; test: Cell proliferation (BrdU); type: cell-based, human; conditions: Ser concentrations above 3 mM, 'up to'
Protocol: as §2

Structure (SMILES) | Kd [1] | Inhibition of CBS activity ([2]; 200 µM AOAA, then excess removed by desalting column, range printed for tScCBS and HsCBS together) | IC50 ([2]; tScCBS, AzMC assay, 5 mM Cys + 2 mM Hcy) | IC50 ([3]; HsCBS in the absence of SAM) | IC50 ([3]; HsCBS in the presence of 500 µM SAM) | H2S-producing activity, % of the controls ([4]; HEK293, 150 µM AOAA, 24 h) | Recovery of activity of AOAA-inhibited enzyme ([2]; tScCBS, 1 mM Ser after 200 µM AOAA incubation, then desalting) | Recovery of activity of AOAA-inhibited enzyme ([3]; HsCBS in the absence and presence of SAM, 1 mM Ser after 200 µM AOAA incubation, then desalting) | Reduction of cellular H2S productivity ([4]; HEK293, 10 mM Ser in growth medium) | Reduction of H2S production ([4]; HEK293, Ser added to medium (1/3/10 mM, 24 h), concentration-dependent, 'up to') | Recovery of H2S-producing capacity, % of control WT activity ([4]; HEK293 inhibited by 150 µM AOAA, with 1, 3 or 10 mM Ser) | Cell viability [5] | Increase of cellular proliferation [6]
NOCC(=O)O [AOAA, aminooxyacetic acid] | ~6 µM | 75–92% | 9.1 µM | 12.8 µM | 10.9 µM | ~ 15% | – | – | – | – | – | – | –
N[C@@H](CO)C(=O)O [Ser, serine] | ~58 µM and 58.6 µM | – | – | – | – | – | substantial recovery | substantial recovery | ~ 29% | ~ 30% | 82–89% | did not affect | ~ 18%
